In patent US9458184B2, “Compositions of TLR7 and/or TLR8 agonists conjugated to lipids” (CAYLA, priority 2012, dated 2016):

Experiments:
[1] = target: T1, human TLR7 (Homo sapiens, UniProt Q9NYK1); assay: HEK-Blue hTLR7 NF-κB/AP-1 SEAP reporter cell assay
T1 sequence (Q9NYK1 27-1049): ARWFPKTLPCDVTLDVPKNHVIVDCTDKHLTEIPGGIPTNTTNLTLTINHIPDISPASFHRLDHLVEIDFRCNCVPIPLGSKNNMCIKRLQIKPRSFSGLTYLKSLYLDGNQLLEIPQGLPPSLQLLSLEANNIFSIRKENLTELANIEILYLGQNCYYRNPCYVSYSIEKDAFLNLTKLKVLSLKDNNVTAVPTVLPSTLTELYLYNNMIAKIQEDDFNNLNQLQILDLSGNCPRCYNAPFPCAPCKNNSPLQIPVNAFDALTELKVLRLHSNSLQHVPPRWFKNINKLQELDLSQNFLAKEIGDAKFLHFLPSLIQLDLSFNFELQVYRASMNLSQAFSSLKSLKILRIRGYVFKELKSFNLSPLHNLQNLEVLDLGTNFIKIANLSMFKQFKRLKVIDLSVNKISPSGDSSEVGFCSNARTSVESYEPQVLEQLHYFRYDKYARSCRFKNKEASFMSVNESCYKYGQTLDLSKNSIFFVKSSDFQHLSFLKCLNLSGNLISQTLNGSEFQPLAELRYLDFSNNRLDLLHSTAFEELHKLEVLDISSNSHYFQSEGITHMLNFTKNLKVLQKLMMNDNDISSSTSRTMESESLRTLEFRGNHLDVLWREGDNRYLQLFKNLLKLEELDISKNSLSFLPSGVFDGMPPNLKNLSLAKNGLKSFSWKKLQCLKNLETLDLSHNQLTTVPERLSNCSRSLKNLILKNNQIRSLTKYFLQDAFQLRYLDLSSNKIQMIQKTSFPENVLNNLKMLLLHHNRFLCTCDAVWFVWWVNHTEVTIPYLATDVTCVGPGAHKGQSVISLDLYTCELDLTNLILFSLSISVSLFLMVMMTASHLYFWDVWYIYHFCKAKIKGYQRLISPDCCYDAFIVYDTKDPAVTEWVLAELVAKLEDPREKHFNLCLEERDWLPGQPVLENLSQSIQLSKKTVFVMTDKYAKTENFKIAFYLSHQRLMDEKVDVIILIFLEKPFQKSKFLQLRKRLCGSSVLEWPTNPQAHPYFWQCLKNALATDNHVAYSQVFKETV

[2] = test system: B16-F1 tumor; assay: Mouse B16 tumor model, intratumoral injection; assay type: in vivo, C57BL/6 mice; conditions: by day 28, 3 intra-tumoral injections, 40 μg in 100 μl
[3] = test system: mouse B16 melanoma cell line; assay: Cell transfection with SEAP plasmid, B16; assay type: cell-based; conditions: complexed with pVitro14 LGFP SEAP plasmid, B16, 48 hours
[4] = test system: human HEK293 cell line; assay: Cell transfection with SEAP plasmid, HEK293; assay type: cell-based; conditions: complexed with pVitro14 LGFP SEAP plasmid, HEK293, 48 hours
[5] = test system: plasmid DNA; assay type: physicochemical

CCCCNc1nc(N)c2nc(O)n(Cc3ccc(C(=O)NCC(=O)NCCCC[C@H](NCCCP(=O)(OCCC(C)CCCC(C)CCCC(C)CCCC(C)C)OCCC(C)CCCC(C)CCCC(C)CCCC(C)C)C(=O)NCCCNCCCCNCCCN)cc3)c2n1 (stereo in doubt) [CL493, (S)-bis(3,7,11,15-tetramethylhexadecyl) 19-amino-5-(4-(2-(4-((6-amino-2-(butylamino)-8-hydroxy-9H-purin-9-yl)methyl)benzamido)acetamido)butyl)-6-oxo-4,7,11,16-tetraazanonadecylphosphonate]
TLR7 activity (NF-κB/AP-1-inducible SEAP reporter) [1]: strong and specific TLR7 activity

CCCCNc1nc(N)c2nc(O)n(Cc3ccc(C(=O)NCCCNCCCCNCCCNCCCP(=O)(OCCC(C)CCCC(C)CCCC(C)CCCC(C)C)OCCC(C)CCCC(C)CCCC(C)CCCC(C)C)cc3)c2n1 (centres unmarked) [CL346, bis(3,7,11,15-tetramethylhexadecyl) 1-(4-((6-amino-2-(butylamino)-8-hydroxy-9H-purin-9-yl)methyl)phenyl)-1-oxo-2,6,11,15-tetraazaoctadecan-18-ylphosphonate]
TLR7 activity (NF-κB/AP-1-inducible SEAP reporter) [1]: strong and specific TLR7 activity

CCCCNc1nc(N)c2nc(O)n(Cc3ccc(C(=O)NCC(=O)NCCCNCCCCNCCCNCCCP(=O)(OCCC(C)CCCC(C)CCCC(C)CCCC(C)C)OCCC(C)CCCC(C)CCCC(C)CCCC(C)C)cc3)c2n1 (centres unmarked) [CL347, bis(3,7,11,15-tetramethylhexadecyl) 1-(4-((6-amino-2-(butylamino)-8-hydroxy-9H-purin-9-yl)methyl)phenyl)-1,4-dioxo-2,5,9,14,18-pentaazahenicosan-21-ylphosphonate]
TLR7 activity (NF-κB/AP-1-inducible SEAP reporter) [1]: strong and specific TLR7 activity | survival of mice [2]: no survival

CCCCCCCCCCCCCCCCOP(=O)(CCCN[C@@H](CCCCNC(=O)CNC(=O)c1ccc(Cn2c(O)nc3c(N)nc(NCCCC)nc32)cc1)C(=O)NCCCNCCCCNCCCN)OCCCCCCCCCCCCCCCC [CL481, (S)-dihexadecyl 19-amino-5-(4-(2-(4-((6-amino-2-(butylamino)-8-hydroxy-9H-purin-9-yl)methyl)benzamido)acetamido)butyl)-6-oxo-4,7,11,16-tetraazanonadecylphosphonate]
transfection (SEAP reporter gene expression) [3]: inability to transfect cells | transfection (SEAP reporter gene expression) [4]: inability to transfect cells | TLR7 activity (NF-κB/AP-1-inducible SEAP reporter) [1]: strong and specific TLR7 activity | complex formation with pDNA (retardation of pDNA migration in gel) [5]: inability to form complex with plasmid DNA
